Patent publication US20250188133A1, “CHIMERIC BACTERIOCINS AND METHOD FOR THE CONTROL OF PSEUDOMONAS” (priority 2022, published 2025)

Assays:
P. aeruginosa ATCC 19660 = experiment: murine keratitis model, cytotoxic strain (C57BL/6 mice); assay type: in vivo
Description: (§1) The inbred mice of C57BL/6 strain of both sexes in equivalent numbers were used for the research. 2-6 months old, adult female and adult male mice were purchased from the Vilnius University vivarium of laboratory animals. The animals throughout the period of the experiment were given standard chow and drinking water ad libitum. Animals were housed in the individual plastic cages in a 12 h light/dark cycle at 21-23° C. All regulated procedures on living animals were approved by The Lithuanian Ethics Committee of Biomedical Research (Protocol no. B1-442) and were carried out in accordance with the European Union legislation of OECD (directive 2010/63/EU). The experiments were carried out in Biological research center of Lithuanian University of Health Sciences.
(§2) For P. aeruginosa infection and keratitis induction the mice were anesthetized by Ketamine and Xylazine 90:9 mg/kg intraperitoneal injection. The cornea of the left eye of each mouse was visualized under a stereoscopic microscope, and three 1 mm scratches were made using a sterile 25 gauge needle. A 10 μL aliquot containing 4×10^6 cells of P. aeruginosa ATCC 19660 (cytotoxic strain) or PAO1 ATCC 15692 (invasive strain) was applied to the corneal surface. Depending on the experiment, the treatment was started 30 min or 6 h post infection. 10 μl aliquot containing 0.14 mg of tobramycin or 20 μg of S5-PmnH (both containing 0.5% hydroxypropyl methylcellulose (HPMC)) or PBS containing 0.5% HPMC was applied as one drop of substance to the each eye. HPMC is used as artificial tears and was used in order to thicken the tears film and prolong the presence of the applied product on the surface of the cornea. The treatment was continued for five days twice daily. Mice were euthanized by cervical dislocation 1, 3, 5 days post infection, and the eyeballs were collected and homogenized for viable bacteria count.
(§3) The eyes were examined and photographed with a dissection microscope equipped with a digital camera at 1, 3 and 5 dpi to monitor the disease progression. At 1, 3 and 5 dpi disease severity was visually graded by using an established corneal damage scale: 0, the pupil was partially or fully covered by clear or slight opacity; +1, the anterior segment was partially or fully covered by slight opacity; +2, the pupil was partially or fully covered by dense opacity; +3, the entire anterior segment was covered by dense opacity; and +4, corneal perforation^40.
(§4) Histopathology experiments were carried out at Lithuanian University of Health Sciences, Department of Veterinary Pathobiology of Veterinary Academy. One randomly chosen mice of each study group was used for histopathology experiments. Enucleated eyes were preserved in 10% formaldehyde. Eyes were paraffin-embedded, cut into 3-μm-thick sections, deparaffinised, rehydrated and used for preparation of hematoxylin/eosin stained samples.

P. aeruginosa PAO1 = experiment: murine keratitis model, invasive strain (C57BL/6 mice); assay type: in vivo
Description: as §1, §2, §3, §4

P. aeruginosa ATCC 27853 = experiment: murine lung colonization and treatment (CD1 mice); assay type: in vivo; details: 5 h post infection
Description: CD1 male mice were supplied by Charles River (Margate, UK) and were specific pathogen free. Mice were 11 to 15 g on receipt at the facility and were allowed to acclimatize for at least 7 days.
P. aeruginosa ATCC 27853 was recovered from long-term storage (−80° C.) and cultured on cystine-lactose-electrolyte-deficient (CLED) agar at 37° C. under aerobic conditions for approximately 16-24 h. 20 ml of Mueller Hinton broth was inoculated with a single well isolated colony and cultured overnight at 37° C. with shaking at 300 rpm65. The overnight broth was diluted 1:100 in Mueller Hinton broth and 100 ml was cultured in a baffle flask for ˜6 h at 37° C. with shaking at 300 rpm until the broth OD was ˜0.6 (˜mid-exponential phase). 20 ml of culture was centrifuged at 2465 g for 10 minutes and washed in PBS. The pellet was suspended in PBS and the OD600 adjusted to 0.67 (˜2.6×10^8 CFU/ml). The study inoculum was prepared from this by appropriate dilution with PBS. The inoculum concentration was confirmed by quantitative culture on Pseudomonas Selective Agar (PSA). The inoculum concentration for the study was 1.47×10^7 CFU/ml (5.87×10^5 CFU/mouse).
Mice were infected under temporary inhaled 3% isoflurane anesthesia by intranasal (IN) instillation with 40 μl of the inoculum suspension split as 20 μl/nostril.
1 hour post infection 6 mice were sacrificed in order to evaluate the pre-treatment burden in lungs. Treatments were administered IN once at 1 h post infection (50 μl split to 25 μl/nares). Three treatment groups consisting of six mice each were administered S5-PmnH (2.5, 25 and 250 μg). The fourth group of mice (n=6) was administered 200 μg Tobramycin (40 mg/ml injection solution, Hospira UK Ltd, diluted 10 times). The study was terminated at 5 hours post infection for all animals. The clinical conditions and weights were assessed and animals were immediately euthanized using an overdose of pentobarbitone. Following confirmation of death, the lungs were excised and homogenized in ice cold sterile phosphate buffered saline using a Precellys bead beater. The homogenates were quantitatively cultured onto PSA agar and incubated at 37° C. for 24 hours before colonies were counted.

P. aeruginosa A19 = experiment: agar disc-diffusion assay; assay type: cell-based; details: strain A19; 0.3, 3 and 30 μg of protein spotted on discs on CAA agar lawn, overnight
Description: (§5) Overnight P. aeruginosa cultures grown in CAA medium were equalized till OD595=1.0 in CAA and diluted 100×. Sterile cotton swab was briefly submerged in diluted microbial suspension, removing the excess of liquid by pressing it against the container wall. The swab was used for evenly streaking bacteria on plates containing growth medium with CAA solid agar (1.5%). 6 mm diameter sterile Whatman discs were placed on soft-agar and 0.3-30 μg of chimeric pyocins were spotted to paper disks. The plates were incubated overnight at 37° C. and bacteriocin inhibition zones were observed.
(§6) Next, all 25 P. aeruginosa strains were subjected to agar disc-diffusion assay by spotting different amounts of purified pyocin S5 (0.3 μg, 3 μg and 30 μg) on bacteria lawns. Six P. aeruginosa strains were resistant to pyocin S5. Four of these six strains were pyocin S5 and immunity protein-encoding strains—PA14, PAO1, […] and NCTC 13921. Two cystic fibrosis isolates, 12-35708 and 12-29165 were also completely resistant to pyocin S5, despite the absence of S5, or S5 immunity protein coding genes. […] Turbid inhibition zones were detected when 3 μg and 30 μg of S5 were spotted on the lawn of these strains (Table 1, FIG. 3).

[1] = system: P. aeruginosa Boston 41501 (ATCC 27853); experiment: agar disc-diffusion assay; assay type: cell-based; details: strain Boston; 0.3, 3 and 30 μg of protein spotted on discs on CAA agar lawn, overnight
Description: as §5, §6

P. aeruginosa HP40 = experiment: agar disc-diffusion assay; assay type: cell-based; details: strain HP40; 0.3, 3 and 30 μg of protein spotted on discs on CAA agar lawn, overnight
Description: as §5, §6

P. aeruginosa HP6 = experiment: agar disc-diffusion assay; assay type: cell-based; details: strain HP6; 0.3, 3 and 30 μg of protein spotted on discs on CAA agar lawn, overnight
Description: as §5, §6

P. aeruginosa NCTC 13921 = experiment: agar disc-diffusion assay; assay type: cell-based; details: strain NCTC 13921; 0.3, 3 and 30 μg of protein spotted on discs on CAA agar lawn, overnight
Description: as §5, §6

P. aeruginosa Pr335 = experiment: agar disc-diffusion assay; assay type: cell-based; details: strain Pr335; 0.3, 3 and 30 μg of protein spotted on discs on CAA agar lawn, overnight
Description: as §5, §6

P. aeruginosa strains = experiment: agar disc-diffusion assay, panel of 25 strains; assay type: cell-based; details: panel of 25 P. aeruginosa strains, in words
Description: as §5, §6

[2] = treatment started 30 min post infection

NC[C@H]1O[C@H](O[C@H]2[C@H](O)[C@@H](O[C@H]3O[C@H](CO)[C@@H](O)[C@H](N)[C@H]3O)[C@H](N)C[C@@H]2N)[C@H](N)C[C@@H]1O [tobramycin, reference compound]
histopathology of infected treated eyes (P. aeruginosa ATCC 19660; [2]): Only weak oedema in the corneal stroma
signs of disease (visual inspection, clinical score) (P. aeruginosa ATCC 19660; [2]): No signs of disease were observed in majority of samples
viable bacteria isolated from infected eyes (P. aeruginosa ATCC 19660; treatment started 30 min post infection, twice daily, 1, 3 or 5 dpi, 20 μg S5-PmnH or 0.14 mg tobramycin per eye): no viable P. aeruginosa were isolated
viable bacteria isolated (P. aeruginosa ATCC 19660; treatment started 6 h post infection, 1, 3 or 5 dpi): no viable bacteria were isolated
clinical score evaluation (P. aeruginosa ATCC 19660; treatment started 6 h post infection, 1 and 3 dpi, two S5-PmnH-treated and one tobramycin-treated mice): Only mild disease signs were observed
histopathology of infected treated eyes (P. aeruginosa ATCC 19660; treatment started 6 h post infection, 3 and 5 dpi): slight thickening of epithelium
clinical score evaluation (P. aeruginosa ATCC 19660; treatment started 6 h post infection, 5 dpi): all corneas were completely clear
histological examination of infected treated eyes (P. aeruginosa PAO1; 1 dpi): signs of acute inflammation of cornea
histological examination of infected treated eyes (P. aeruginosa PAO1; 3 dpi): thinning of cornea epithelium and strong edema of the corneal stroma
histological examination of infected treated eyes (P. aeruginosa PAO1; day 5): local inflammation of cornea, thinning and degeneration of cornea epithelium
average reduction of bacterial burden vs mock-treated (P. aeruginosa PAO1; treatment started 6 h post infection, 1 dpi): 1.42 log 10 CFU/cornea
mice from which no viable bacteria were isolated (P. aeruginosa PAO1; treatment started 6 h post infection, 3 dpi, three mice per group): three
viable bacteria in cornea, individual mice (P. aeruginosa PAO1; treatment started 6 h post infection, 5 dpi, mice with bacteria): 2.8 log 10 CFU/cornea
mice from which no bacteria were isolated (P. aeruginosa PAO1; treatment started 6 h post infection, 5 dpi, three mice per group): two
reduction of lung burden vs vehicle (P. aeruginosa ATCC 27853; 200 μg/mouse IN once 1 h post infection): 2.75 log10 CFU/g
reduction of burden below the level of stasis (pre-treatment) (P. aeruginosa ATCC 27853; 200 μg/mouse IN once): 1.23 log10 CFU/g

B1: S5-Pflu794: chimeric bacteriocin SEQ ID NO: 17: pyocin S5 first segment fused to P. fluorescens Pflu794 killing domain (protein)
chain: MSNDNEVPGSMVIVAQGPDDQYAYEVPPIDSAAVAGNMFGDLIQREIYLQKNIYYPVRSIFEQGTKEKKEINKKVSDQVDGLLKQITQGKREATRQERVDVMSAVLHKMESDLEGYKKTFTKGPFIDYEKQSSLSIYEAWVKIWEKNSWEERKKYPFQQLVRDELERAVAYYKQDSLSEAVKVLRQELNKQKALKEKEDLSQLERDYRTRKANLEMKVQSELDQAGSALPPLVSPTPEQWLERATRLVTQAIADKKQLQTTNNTLIKNSPTPLEKQKAIYNGELLVDEIASLQARLVKLNAETTRRRTEKASDQANNVDIEEAILFTTTFYENLTEKYGEKVSAVAKELAESAKGKTMRSSKEALQTFEKYKDTYNGRFRSRDRREVDRALKSLDKELLSKNLAKFSKAFGSVSKIGDLTEVFIELENSIRTGDWKPLLLTLEGIGLGMAGTYLVAAVFGISATTPLGIVVFAVLMAATSAYIDDDLVKKVNKDLFGF
modifications: S5-Pflu794
Activity in agar disc-diffusion assay (P. aeruginosa A19): *** (activity detected with 0.3 μg of protein)
Activity in agar disc-diffusion assay [1]: * (activity detected only with 30 μg of protein)
Activity in agar disc-diffusion assay (P. aeruginosa HP40): * (activity detected only with 30 μg of protein)
Activity in agar disc-diffusion assay (P. aeruginosa HP6): * (activity detected only with 30 μg of protein)
Activity in agar disc-diffusion assay (P. aeruginosa NCTC 13921): * (activity detected only with 30 μg of protein)
Activity in agar disc-diffusion assay (P. aeruginosa Pr335): ** (activity detected with 3 μg of protein)
activity spectrum / profile in agar disc diffusion assay (P. aeruginosa strains): only week activity on 6 tested strains
